Source: US4663327A, “1-heteroaryl-4-aryl-pyrazolin-5-ones” (priority 1984, dated 1987)
Converted amounts (≈) assume the structure as drawn.

Tests used:
Sclerophoma pityophila = test: MIC on fungi in agar; details: Sydowia polyspora, 336 h
Method: (§1) After storage for 2 weeks at 28° C. and 60 to 70% relative atmospheric humidity, the MIC is determined.

slime organisms = test: Action against slime organisms in Allen's nutrient solution (MIC); details: 504 h
Method: Substances according to the invention, dissolved in a small amount of acetone, are used in concentrations of, in each case, 0.1 to 100 mg/l in Allen's nutrient solution (Arch. Mikrobiol. 17, 34 to 53 (1952)), which contains, in 4 l of sterile water, 0.2 g of ammonium chloride, 4.0 g of sodium nitrate, 1.0 g of dipotassium hydrogen phosphate, 0.2 g of calcium chloride, 2.05 g of magnesium sulphate, 0.02 g of iron chloride and 1% of caprolactam. Shortly beforehand, the nutrient solution is infected with slime organisms (approx. 10^6 organisms/ml) which have been isolated from the spinning water circulations used in the manufacture of polyamide.

Alternaria tenuis = test: MIC on fungi in agar; details: Alternaria alternata, 336 h
Method: as §1

Chaetomium globosum = test: MIC on fungi in agar; details: 336 h
Method: as §1

Polyporus versicolor = test: MIC on fungi in agar; details: Trametes versicolor, 336 h
Method: as §1

Aspergillus niger = test: MIC on fungi in agar; details: 336 h
Method: as §1

Lentinus tigrinus = test: MIC on fungi in agar; details: 336 h
Method: as §1

Aureobasidium pullulans = test: MIC on fungi in agar; details: 336 h
Method: as §1

Coniophora puteana = test: MIC on fungi in agar; details: 336 h
Method: as §1

Penicillium glaucum = test: MIC on fungi in agar; details: 336 h
Method: as §1

Trichoderma viride = test: MIC on fungi in agar; details: 336 h
Method: as §1

Leptosphaeria nodorum = Leptosphaeria nodorum test (wheat)/protective; format: in vivo; details: sprayed, evaluation 10 days after inoculation
Method: Leptosphaeria nodorum test (wheat)/protective Solvent: 100 parts by weight of dimethylformamide Emulsifier: 0.25 parts by weight of alkylaryl polyglycol ether To produce a suitable preparation of active compound, 1 part by weight of active compound is mixed with the stated amounts of solvent and emulsifier, and the concentrate is diluted with water to the desired concentration. To test for protective activity, young plants are sprayed with the preparation of active compound until dew-moist. After the spray coating has dried on, the plants are sprayed with a conidia suspension of Leptosphaeria nodorum. The plants remain for 48 hours in an incubation cabinet at 20° C. and 100% relative atmospheric humidity. The plants are placed in a greenhouse at a temperature of about 15° C. and a relative atmospheric humidity of about 80%. Evaluation is effected 10 days after the inoculation.

Pyricularia oryzae [1] = format: in vivo; details: rice, soil watered 7 days before inoculation, disease infestation 4 days after inoculation
Cochliobolus sativus = Cochliobolus sativus test (barley)/protective; format: in vivo; details: sprayed, evaluation 7 days after inoculation
Method: Cochliobolus sativus test (barley)/protective Solvent: 100 parts by weight of dimethylformamide Emulsifier: 0.25 parts by weight of alkylaryl polyglycol ether To produce a suitable preparation of active compound, 1 part by weight of active compound is mixed with the stated amounts of solvent and emulsifier, and the concentrate is diluted with water to the desired concentration. To test for protective activity, young plants are sprayed with the preparation of active compound until dew-moist. After the spray coating has dried on, the plants are sprayed with a conidia suspension of Cochliobolus sativus. The plants remain in an incubation cabinet for 48 hours at 20° C. and 100% relative atmospheric humidity. The plants are placed in a greenhouse at a temperature of about 20° C. and a relative atmospheric humidity of about 80%. Evaluation is carried out 7 days after the inoculation.

Botrytis cinerea = test: Botrytis test (BEAN)/protective; format: in vivo; details: sprayed, infected spots on leaves evaluated 3 days after inoculation
Method: Botrytis test (BEAN)/protective Solvent: 4.7 parts by weight of acetone Emulsifier: 0.3 parts by weight alkyl aryl polyglycol ether To produce a suitable preparation of active compound, 1 pat by weight of active compound is mixed with the stated amounts of solvent and emulsifier, and the concentrate is diluted with water to the desired concentration. To test for protective activity, young plants are sprayed with the preparation of active compound until dripping wet. After the spray coating has dried on, 2 small pieces of agar covered with Botrytis cinerea are placed on each leaf. The inoculated plants are placed in a darkened humidity chamber at 20° C. 3 days after the inoculation, the size of the infected spots on the leaves is evaluated.

Drechslera graminea = Drechslera graminea test (barley)/seed treatment; format: in vivo, Drechslera graminea (syn. Helminthosporium gramineum); details: seed dry dressing, about 3 weeks after sowing
Method: Drechslera […] (barley)/seed treatment (syn. Helminthosporium gramineum) The active compounds are used as dry dressings. These are prepared by extending the paticular active compound with a ground mineral to give a finely pulverulent mixture, which ensures uniform distribution on the seed surface. To apply the dressing, the infected seed is shaken with the dressing in a closed glass flask for 3 minutes. The seed is embedded in sieved, moist standard soil and is exposed to a temperature of 4° C. in closed Petri dishes in a refrigerator for 10 days. Germination of the barley, and possibly also of the fungus spores, is thereby initiated. 2 batches of 50 grains of the pregerminated barley are subsequently sown 3 cm deep in standard soil and are cultivated in a greenhouse at a temperature of about 18° C., in seedboxes which are exposed to light for 15 hours daily. About 3 weeks after sowing, the plants are evaluated for symptons of stripe disease.

Phytophthora infestans = format: in vivo; details: tomato, sprayed, evaluation 3 days after inoculation
Pyricularia oryzae [2] = format: in vivo; details: rice, sprayed, disease infestation 4 days after inoculation

SMILES: O=c1c(-c2ccccc2)c[nH]n1-c1ccccn1 [Example 4, 1-pyrid-2-yl-4-phenyl-pyrazolin-5-one]
- MIC (Sclerophoma pityophila): 10 µg/mL (≈ 42.1 µM)
- MIC (slime organisms): 15 µg/mL (≈ 63.2 µM)
- MIC (Alternaria tenuis): 50 µg/mL (≈ 211 µM)
- MIC (Chaetomium globosum): 1.5 µg/mL (≈ 6.32 µM)
- MIC (Polyporus versicolor): 35 µg/mL (≈ 148 µM)
- MIC (Aspergillus niger): 7.5 µg/mL (≈ 31.6 µM)
- MIC (Lentinus tigrinus): 75 µg/mL (≈ 316 µM)
- MIC (Aureobasidium pullulans): 100 µg/mL (≈ 421 µM)
- MIC (Coniophora puteana): 5 µg/mL (≈ 21.1 µM)
- MIC (Penicillium glaucum): 10 µg/mL (≈ 42.1 µM)
- MIC (Trichoderma viride): 200 µg/mL (≈ 843 µM)

SMILES: O=c1c(-c2ccc(OC(F)(F)F)cc2)c[nH]n1-c1ccccn1 [Example 18]
- protective activity (Leptosphaeria nodorum): clearly superior activity compared with the prior art
- systemic activity (Pyricularia oryzae [1]): clearly superior activity compared with the prior art
- protective activity (Cochliobolus sativus): clearly superior activity compared with the prior art

SMILES: Cc1ccccc1-c1c[nH]n(-c2ccccn2)c1=O [Example 21]
- MIC (Sclerophoma pityophila): 35 µg/mL (≈ 139 µM)
- MIC (Alternaria tenuis): 10 µg/mL (≈ 39.8 µM)
- MIC (Chaetomium globosum): 0.75 µg/mL (≈ 2.98 µM)
- protective activity (Botrytis cinerea): clearly superior activity compared with the prior art
- MIC (Polyporus versicolor): 7.5 µg/mL (≈ 29.8 µM)
- MIC (Aspergillus niger): 7.5 µg/mL (≈ 29.8 µM)
- MIC (Lentinus tigrinus): 50 µg/mL (≈ 199 µM)
- MIC (Aureobasidium pullulans): 35 µg/mL (≈ 139 µM)
- MIC (Coniophora puteana): 5 µg/mL (≈ 19.9 µM)
- MIC (Penicillium glaucum): 7.5 µg/mL (≈ 29.8 µM)
- systemic activity (Pyricularia oryzae [1]): clearly superior activity compared with the prior art
- protective activity (Cochliobolus sativus): clearly superior activity compared with the prior art
- MIC (Trichoderma viride): 50 µg/mL (≈ 199 µM)
- activity, symptoms of stripe disease (Drechslera graminea): clearly superior activity compared with the prior art

SMILES: Cc1ccc(-c2c[nH]n(-c3ccccn3)c2=O)cc1 [Example 23]
- MIC (Sclerophoma pityophila): 20 µg/mL (≈ 79.6 µM)
- MIC (slime organisms): 7.5 µg/mL (≈ 29.8 µM)
- MIC (Alternaria tenuis): 75 µg/mL (≈ 298 µM)
- MIC (Chaetomium globosum): 0.5 µg/mL (≈ 1.99 µM)
- MIC (Polyporus versicolor): 3.5 µg/mL (≈ 13.9 µM)
- MIC (Aspergillus niger): 7.5 µg/mL (≈ 29.8 µM)
- MIC (Lentinus tigrinus): 75 µg/mL (≈ 298 µM)
- MIC (Aureobasidium pullulans): 50 µg/mL (≈ 199 µM)
- MIC (Coniophora puteana): 35 µg/mL (≈ 139 µM)
- MIC (Penicillium glaucum): 5 µg/mL (≈ 19.9 µM)
- MIC (Trichoderma viride): 1000 µg/mL (≈ 3980 µM)

SMILES: O=c1c(-c2ccc(F)cc2)c[nH]n1-c1ncccn1 [Example 83]
- MIC (Sclerophoma pityophila): 5 µg/mL (≈ 19.5 µM)
- MIC (slime organisms): 35 µg/mL (≈ 137 µM)
- MIC (Alternaria tenuis): 50 µg/mL (≈ 195 µM)
- MIC (Chaetomium globosum): 3.5 µg/mL (≈ 13.7 µM)
- MIC (Polyporus versicolor): 35 µg/mL (≈ 137 µM)
- MIC (Aspergillus niger): 15 µg/mL (≈ 58.5 µM)
- MIC (Lentinus tigrinus): 50 µg/mL (≈ 195 µM)
- MIC (Aureobasidium pullulans): 50 µg/mL (≈ 195 µM)
- MIC (Coniophora puteana): 5 µg/mL (≈ 19.5 µM)
- MIC (Penicillium glaucum): 20 µg/mL (≈ 78.1 µM)
- MIC (Trichoderma viride): 75 µg/mL (≈ 293 µM)

SMILES: O=c1c(-c2ccc(SC(F)(F)F)cc2)c[nH]n1-c1ncccn1 [Example 94]
- protective activity (Botrytis cinerea): clearly superior activity compared with the prior art
- systemic activity (Pyricularia oryzae [1]): clearly superior activity compared with the prior art

SMILES: Cc1cccc(-c2c[nH]n(-c3ncccn3)c2=O)c1 [Example 97]
- MIC (Sclerophoma pityophila): 20 µg/mL (≈ 79.3 µM)
- MIC (Alternaria tenuis): 50 µg/mL (≈ 198 µM)
- MIC (Chaetomium globosum): 1 µg/mL (≈ 3.96 µM)
- MIC (Polyporus versicolor): 5 µg/mL (≈ 19.8 µM)
- MIC (Aspergillus niger): 10 µg/mL (≈ 39.6 µM)
- MIC (Lentinus tigrinus): 10 µg/mL (≈ 39.6 µM)
- MIC (Aureobasidium pullulans): 50 µg/mL (≈ 198 µM)
- MIC (Coniophora puteana): 2 µg/mL (≈ 7.93 µM)
- MIC (Penicillium glaucum): 10 µg/mL (≈ 39.6 µM)
- systemic activity (Pyricularia oryzae [1]): clearly superior activity compared with the prior art
- MIC (Trichoderma viride): 75 µg/mL (≈ 297 µM)

SMILES: O=c1c(-c2cc(C(F)(F)F)ccc2Cl)c[nH]n1-c1ncccn1 [Example 102]
- protective activity (Botrytis cinerea): clearly superior activity compared with the prior art
- protective activity (Phytophthora infestans): clearly superior activity compared with the prior art
- systemic activity (Pyricularia oryzae [1]): clearly superior activity compared with the prior art
- protective activity (Pyricularia oryzae [2]): clearly superior activity compared with the prior art

SMILES: O=c1c(-c2cccc3ccccc23)c[nH]n1-c1ncccn1 [Example 105]
- protective activity (Phytophthora infestans): clearly superior activity compared with the prior art
- systemic activity (Pyricularia oryzae [1]): clearly superior activity compared with the prior art
- protective activity (Pyricularia oryzae [2]): clearly superior activity compared with the prior art
